Key:
Format in all cases: in vivo
[1] = test system: yellow fever mosquito (Aedes aegypti); test: whole plant or invertebrate; details: 48 h, larval mortality, 2 days, read-out: mortality in comparison with untreated controls
Method: For evaluating control of yellow fever mosquito (Aedes aegypti) the test unit consisted of 96-well-microtiter plates containing 200µl of tap water per well and 5-15 freshly hatched A. aegypti larvae.
The active compounds were formulated using a solution containing 75% (v/v) water and 25% (v/v) DMSO. Different concentrations of formulated compounds or mixtures were sprayed onto the insect diet at 2.5µl, using a custom-built micro atomizer, at two replications.
After application, microtiter plates were incubated at 28 ± 1°C, 80 ± 5 % RH for 2 days. Larval mortality was then visually assessed.

[2] = test system: tobacco budworm (Heliothis virescens); test: Tobacco budworm test, insect diet with eggs in 96-well microtiter plates; details: 120 h, egg and larval mortality, 5 days, read-out: mortality in comparison with untreated controls
Method: For evaluating control of tobacco budworm (Heliothis virescens), the test unit consisted of 96-well-microtiter plates containing an insect diet and 15-25 H. virescens eggs.
The compounds were formulated using a solution containing 75% v/v water and 25% v/v DMSO. Different concentrations of formulated compounds were sprayed onto the insect diet at 10 µl using a custom-built micro atomizer, at two replications.
After application, microtiter plates were incubated at about 28 ± 1°C and about 80 ± 5 % relative humidity for 5 days. Egg and larval mortality was then visually assessed.

[3] = test system: green peach aphid (Myzus persicae); test: Green Peach Aphid systemic test, artificial diet in 96-well microtiter plates; details: 72 h, adult aphids on treated diet, 3 days, read-out: mortality in comparison with untreated controls
From the text: For evaluating control of green peach aphid (Myzus persicae) through systemic means, the test unit consisted of 96-well-microtiter plates containing liquid artificial diet under an artificial mem brane.
The compounds were formulated using a solution containing 75% v/v water and 25% v/v DMSO. Different concentrations of formulated compounds were pipetted into the aphid diet, using a custom built pipetter, at two replications.
After application, 5 - 8 adult aphids were placed on the artificial membrane inside the microtiter plate wells. The aphids were then allowed to suck on the treated aphid diet and incubated at about 23 ± 1°C and about 50 ± 5 % relative humidity for 3 days. Aphid mortality and fecundity was then visually assessed.

[4] = test system: boll weevil (Anthonomus grandis); test: Boll weevil test, insect diet with eggs in 96-well microtiter plates; details: 120 h, egg and larval mortality, 5 days, read-out: mortality in comparison with untreated controls
Method: For evaluating control of boll weevil (Anthonomus grandis), the test unit consisted of 96-well-microtiter plates containing an insect diet and 5-10 A. grandis eggs.
The compounds were formulated using a solution containing 75% v/v water and 25% v/v DMSO. Different concentrations of formulated compounds were sprayed onto the insect diet at 5 µl, using a custom-built micro atomizer, at two replications.
After application, microtiter plates were incubated at about 25 ± 1°C and about 75 ± 5 % relative humidity for 5 days. Egg and larval mortality was then visually assessed.

[5] = test system: Southern armyworm (Spodoptera eridania), 2nd instar larvae; test: Southern armyworm foliar spray test on Lima bean plants; details: 2nd instar larvae on sprayed Lima bean plants, 4 days after treatment
Method: The active compounds were formulated by a Tecan liquid handler in 100% cyclohexanone as a 10,000-ppm solution supplied in tubes. The 10,000-ppm solution was serially diluted in 100% cyclohexanone to make interim solutions. These served as stock solutions for which final dilutions were made by the Tecan in 50% acetone:50% water (v/v) into 10 or 20ml glass vials. A non-ionic surfactant (Kinetic®) was included in the solution at a volume of 0.01% (v/v). The vials were then inserted into an automated electrostatic sprayer equipped with an atomizing nozzle for application to plants/insects. Lima bean plants (variety Sieva) were grown 2 plants to a pot and selected for treatment at the 1st true leaf stage. Test solutions were sprayed onto the foliage by an auto-mated electrostatic plant sprayer equipped with an atomizing spray nozzle. The plants were dried in the sprayer fume hood and then removed from the sprayer. Each pot was placed into perforated plastic bags with a zip closure. Ten to 11 armyworm larvae were placed into the bag and the bags zipped closed. Test plants were maintained in a growth room at about 25°C and about 20-40% relative humidity for 4 days, avoiding direct exposure to fluorescent light (14:10 light:dark photoperiod) to prevent trapping of heat inside the bags. Mortality and reduced feeding were assessed 4 days after treatment, compared to untreated control plants.

Row | Compound | mortality at 2500 ppm [1] | mortality at 2500 ppm [2] | mortality at 2500 ppm [3] | mortality at 2500 ppm [4] | mortality at 300 ppm ([5]; Spodoptera eridania, foliar, 96 h, read-out: mortality in comparison with untreated controls) | mortality in comparison with untreated controls ([5]; 300 ppm)
1 | CON=C(C)c1nccnc1C(C)NC(=O)c1cc(C(F)(F)F)cc(C(F)(F)F)c1 (stereo not drawn) [Compound I-1, N-[1-[3-[N-methoxy-C-methyl-carbonimidoyl]pyrazin-2-yl]ethyl]-3,5-bis(trifluoromethyl)benzamide] | ≥ 75% | ≥ 75% | ≥ 75% | ≥ 75% | ≥ 75% | 
2 | CON=C(N)c1nccnc1C(C)N(CC1CC1)C(=O)c1cc(C(F)(F)F)cc(C(F)(F)F)c1 (stereo not drawn) [Compound I-4] |  |  |  |  |  | at least 75%
